Results: PubChem BioAssay AID720513 (Broad Institute, 2013)
Results filed as inconclusive are left out.

Tested on: U2OS PGC1a acetylation AlphaLISA, overnight
Test: activators raising PGC1a acetylation in cells, dose response, cell-based, cherry-picked samples, set 6 (AID 720513);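 note: cells made to overexpress flag tagged PGC1a plus GCN5 acetyltransferase by viral infection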

CC(C)(C)n1nnnc1CN(Cc1ccc(F)cc1)Cc1ccco1
AC40: 1.73 µM

COc1cc2nc(SCc3c(C)noc3C)n(CCC3=CCCCC3)c(=O)c2cc1OC
AC40: 2.51 µM

C[C@@H](c1ccccc1)N1Cc2ccccc2Oc2cc(Br)ccc2S1(=O)=O
AC40: 14.3 µM

NC(=O)Cc1ccc2c(c1)[nH]c1ccccc12
AC40: 1.33 µM

COc1ccc(C#Cc2cnc3c(c2)C(=O)N([C@H](C)CO)C[C@H](C)[C@H](CN(C)S(=O)(=O)c2cccs2)O3)cc1OC
AC40: 18.2 µM

NC(=O)Cn1cc(C(=O)c2cccs2)c2ccccc21
AC40: 3.92 µM

Cc1ccccc1-c1ccc([C@@H]2[C@H](CO)N3CCCCN(C(=O)Nc4cccc(F)c4)C[C@@H]23)cc1
AC40: 8.22 µM

COc1ccc(C#Cc2cnc3c(c2)C(=O)N([C@H](C)CO)C[C@H](C)[C@H](CN(C)S(=O)(=O)c2cccc(F)c2)O3)cc1OC
AC40: 18.8 µM

O=C(Cc1ccccc1)N1CCN(C(=O)c2cccs2)CC1
AC40: 10 µM

C[C@H](CO)N1C[C@H](C)[C@@H](CN(C)Cc2ccc3c(c2)OCO3)Oc2ccc(NC(=O)Nc3ccc4c(c3)OCO4)cc2CC1=O
AC40: 18.2 µM

CC(=O)c1ccc(NC(=O)N2CCc3ccccc3C2)cc1
AC40: 0.412 µM

CC(=O)C1=CCC(c2cccc3ccccc23)N(S(=O)(=O)c2ccc(C)cc2)C1 (stereo not drawn)
AC40: 18.7 µM

C[C@@H]1CN([C@H](C)CO)C(=O)c2cc(N(C)C)ccc2O[C@@H](C)CCCCO[C@H]1CN(C)C(=O)Nc1ccccc1
AC40: 10.6 µM

c1ccc(N2CCN(c3ccccc3)C2c2ccncc2)cc1
AC40: 0.244 µM

C[C@H](CO)N1C[C@H](C)[C@@H](CN(C)Cc2ccc3c(c2)OCO3)Oc2cc(Br)ccc2S1(=O)=O
AC40: 18.6 µM

Cc1ccc(CNC(=O)C2CC(c3ccc([N+](=O)[O-])cc3)=NO2)cc1 (stereo not drawn)
AC40: 4 µM

CCOC(=S)SCC(=O)Nc1nc(C)c(C)s1
AC40: 3.58 µM

CC(=O)Nc1sc2c(c1-c1nc3ccccc3s1)CN(C(C)C)CC2
AC40: 1.45 µM

Cc1cc(C)c(S(=O)(=O)Nc2ccccc2-c2ccccc2)c(C)c1
AC40: 3.95 µM

O=C1NCN(c2ccccc2)C12CCN(C(c1cc3ccccc3o1)c1nnnn1C1CCCCC1)CC2 (stereo not drawn)
AC40: 1.78 µM

CCn1c(SCC(=O)Nc2ccc(NC(=O)c3ccco3)cc2)nnc1-c1cccs1
AC40: 1.7 µM

COc1ccc(S(=O)(=O)N(C)C[C@@H]2Oc3cc(C#CC4CC4)ccc3S(=O)(=O)N([C@H](C)CO)C[C@@H]2C)cc1
AC40: 18 µM

Cc1csc(NC(=O)NC2(C(F)(F)F)Oc3ccccc3O2)n1
AC40: 6.24 µM

CC1(C)CCCN(C(=O)N2c3ccccc3Sc3ccccc32)C1
AC40: 1.33 µM

C[C@H]1CN([C@@H](C)CO)S(=O)(=O)c2ccc(C#CCN(C)C)cc2O[C@@H]1CN(C)Cc1ccc2c(c1)OCO2
AC40: 4.76 µM

c1ccc(-c2c(-c3ccccc3)n(Cc3ccco3)c3ncnc(NCCCn4ccnc4)c23)cc1
AC40: 1.86 µM

CCOC(=O)CCc1c(C)c2ccc(O)cc2oc1=O
AC40: 0.371 µM

CC1CCCN(Cc2c(O)ccc3c(=O)c(-c4nc5ccccc5s4)c(N)oc23)C1 (stereo not drawn)
AC40: 5.03 µM

Fc1ccc(-c2nn3c(C4COc5ccccc5O4)nnc3s2)cc1 (stereo not drawn)
AC40: 1.01 µM

COc1ccc(OC)c(C(=O)/C=C/c2ccccc2C(F)(F)F)c1
AC40: 8.62 µM

O=C(Nc1cnc2ccccc2c1)c1cccnc1
AC40: 0.651 µM

COc1ccc(C2CC(=O)N(C)c3ccccc3S2)cc1 (stereo not drawn)
AC40: 6.61 µM

Cc1cc(S(=O)(=O)c2ccc([N+](=O)[O-])cn2)ccc1Br
AC40: 0.421 µM

O=C(Cc1ccccc1)Nc1nc(-c2ccc(F)c(F)c2)cs1
AC40: 1.44 µM

COc1ccc(S(=O)(=O)N2CCOCC2)cc1NC(=O)CCNC(=O)c1ccc([N+](=O)[O-])cc1
AC40: < 0.3 µM

CCC(CC)C(=O)c1c[nH]c(C(=O)NCc2ccccc2)c1
AC40: 0.689 µM

O=C(NCc1csc(-c2cccs2)n1)c1cccc(Cl)c1
AC40: 6.13 µM

C[C@H](CO)N1C[C@H](C)[C@H](CN(C)Cc2ccc(C(=O)Nc3ccccc3N)cc2)Oc2c(NC(=O)c3ccncc3)cccc2C1=O
AC40: 12 µM

COc1ccc(-n2nnnc2CNC(=O)c2ccc3ccccc3c2)cc1
AC40: 6.36 µM

CCOC(=O)c1ccc(NC(=O)N2CCc3ccccc3C2)cc1
AC40: 0.478 µM

COc1ccc(S(=O)(=O)N(Cc2ccccc2)Cc2nc(-c3ccccc3)no2)cc1
AC40: 8.22 µM

O=C(NCCC(c1ccccc1)c1ccccc1)c1ccc(Br)o1
AC40: 12.9 µM

CCOc1ccccc1CN1CCN(C2CCC2)CC1CCO (stereo not drawn)
AC40: 6.23 µM

O=C(CCn1nnc2ccccc21)Nc1nnc(Cc2ccccc2)s1
AC40: 4.36 µM

CCO[C@H]1OC(C(=O)N2CCCCCCC2)=C[C@@H](C2CCCCC2)[C@@H]1CCCO
AC40: 1.96 µM

COC(=O)c1ccc2[nH]c3cccc(/C(=C/c4ccccc4)c4ccccc4)c3c2c1
AC40: 3.62 µM

O=C(Nc1cccc(C(F)(F)F)c1)c1sc(Cl)nc1C(F)(F)F
AC40: 3.01 µM

COc1ccc(C#Cc2c(-c3ccccc3)n(-c3ccccc3)c3ccc(CO)cc23)cc1
AC40: 2.19 µM

CCOc1ccccc1NC(=O)CSc1cn[nH]n1
AC40: 2.47 µM

COc1ccc(C2N(S(=O)(=O)c3ccccc3)CCN2S(=O)(=O)c2ccc(C)cc2)cc1 (stereo not drawn)
AC40: 6.61 µM

O=[N+]([O-])c1ccc(N2CCN(CC3CCCCC3)CC2)cc1
AC40: 16 µM

Cc1nnc(NCc2ccccc2)c2ccccc12
AC40: 3.04 µM

CC(C)NC(=O)N(C)C[C@H]1OCCCC[C@@H](C)Oc2ccc(NC(=O)Cc3ccccc3)cc2C(=O)N([C@@H](C)CO)C[C@H]1C
AC40: 16.4 µM

Cc1ccc(Nc2nnc(C)c3ccccc23)c(C)c1
AC40: 2.09 µM

O=C(NC(Nc1cc(C(F)(F)F)ccc1Cl)C(=O)c1ccccc1)c1ccccc1 (stereo not drawn)
AC40: 13.6 µM

COc1cc(CN2[C@@H]3CNC[C@H]2C3c2ccc(-c3ccccc3)cc2)cc(OC)c1 (stereo partly drawn)
AC40: 18.3 µM

C[C@@H]1CN([C@@H](C)CO)C(=O)c2c(c3ccccc3n2C)-c2ccccc2CO[C@@H]1CN(C)C(=O)c1ccc(F)cc1
AC40: 4.7 µM

CC(=O)Nc1nonc1-c1nc2ccccc2n1Cc1ccccc1
AC40: 4.88 µM

COC(=O)C(Nc1ccccc1Cl)(c1cc(C)c(O)c(C)c1)C(F)(F)F (stereo not drawn)
AC40: 0.641 µM

Cc1ccc(S(=O)(=O)Nc2ccc3c(c2)C(=O)N([C@@H](C)CO)C[C@@H](C)[C@H](CN(C)C(=O)Nc2cccc4ccccc24)OCCCC[C@H](C)O3)cc1
AC40: 3.83 µM

CC1CCCCN1C(=O)/C(=C\c1ccccc1)c1ccccc1 (stereo not drawn)
AC40: 8.57 µM

O=C(C[C@H]1CC[C@H]2[C@@H](COC[C@@H](O)CN2C(=O)c2cc(Cl)cc(Cl)c2)O1)N1CCc2ccccc2C1
AC40: 9.14 µM

CCCCN(CCCC)S(=O)(=O)c1ccc2oc(C(=O)N3CCOCC3)c(C)c2c1
AC40: 1.79 µM

O=C1OC(Oc2ccc(Br)cc2)(c2ccccc2)c2ccccc21 (stereo not drawn)
AC40: 1.46 µM

Cc1sc(NC(=O)c2cccs2)nc1-c1ccccc1
AC40: 0.581 µM

O=C(c1ccccc1Nc1ccc(SC(F)F)cc1)N1CCCCCC1
AC40: 10.3 µM

COc1ccc(N(C(=O)c2csnn2)C(C(=O)NC2CCCC2)c2cccs2)cc1 (stereo not drawn)
AC40: 2.62 µM

CCC(C)(C)n1nnnc1CN(Cc1ccc(Cl)cc1)Cc1ccco1
AC40: 1.39 µM

O=S(=O)(NCc1ccccc1Br)c1ccccc1Br
AC40: 1.68 µM

C[C@@H]1CN([C@H](C)CO)C(=O)c2c(c3ccccc3n2C)-c2ccccc2CO[C@@H]1CN(C)C(=O)[C@H](C)c1ccccc1
AC40: 3.36 µM

Cc1cccc(Oc2nccc(C(F)(F)F)c2C(=O)Nc2ccc(F)cc2F)c1
AC40: 11.9 µM

COc1ccc(Cn2nnnc2C(C(C)C)N(Cc2ccco2)Cc2cccs2)cc1 (stereo not drawn)
AC40: 2.6 µM

COc1ccc(Nc2nnc(-c3ccc(C(N)=O)cc3)c3ccccc23)cc1
AC40: 0.524 µM
